Measured values published in PubChem BioAssay (NCI).
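GI50 is the concentration that inhibits growth by half. TGI denotes the concentration required for complete inhibition of growth.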

What was measured:
Assay in all cases: growth of human tumour cells (NCI), 384-well format
[1] = test system: 786-0 renal
[2] = test system: A498 renal
[3] = test system: A549 NSCLC
[4] = test system: ACHN renal
[5] = test system: BT-549 breast
[6] = test system: CAKI-1 renal
[7] = test system: CCRF-CEM leukemia
[8] = test system: COLO 205 colon
[9] = test system: DU-145 prostate
[10] = test system: EKVX NSCLC
[11] = test system: HCC-2998 colon
[12] = test system: HCT-116 colon
[13] = test system: HCT-15 colon
[14] = test system: HL-60(TB) leukemia
[15] = test system: HOP-62 NSCLC
[16] = test system: HOP-92 NSCLC
[17] = test system: HS 578T breast
[18] = test system: HT29 colon
[19] = test system: IGROV1 ovarian
[20] = test system: K-562 leukemia
[21] = test system: KM12 colon
[22] = test system: LOX IMVI melanoma
[23] = test system: M14 melanoma
[24] = test system: MALME-3M melanoma
[25] = test system: MCF7 breast
[26] = test system: MDA-MB-231 breast
[27] = test system: MDA-MB-435 melanoma
[28] = test system: MDA-MB-468 breast
[29] = test system: MOLT-4 leukemia
[30] = test system: NCI-H226 lung
[31] = test system: NCI-H23 lung
[32] = test system: NCI-H322M lung
[33] = test system: NCI-H460 NSCLC
[34] = test system: NCI-H522 lung
[35] = test system: NCI/ADR-RES ovarian
[36] = test system: OVCAR-3 ovarian
[37] = test system: OVCAR-4 ovarian
[38] = test system: OVCAR-5 ovarian
[39] = test system: OVCAR-8 ovarian
[40] = test system: PC-3 prostate
[41] = test system: RPMI-8226 leukemia
[42] = test system: RXF 393 renal
[43] = test system: SF-268 CNS
[44] = test system: SF-295 CNS
[45] = test system: SF-539 CNS
[46] = test system: SK-MEL-2 melanoma
[47] = test system: SK-MEL-28 melanoma
[48] = test system: SK-MEL-5 melanoma
[49] = test system: SK-OV-3 ovarian
[50] = test system: SN12C renal
[51] = test system: SNB-19 CNS
[52] = test system: SNB-75 CNS
[53] = test system: SR leukemia
[54] = test system: SW-620 colon
[55] = test system: T-47D breast
[56] = test system: TK-10 renal
[57] = test system: U251 glioblastoma
[58] = test system: UACC-257 melanoma
[59] = test system: UACC-62 melanoma

C[C@@H]1CCN(C(=O)CC#N)C[C@@H]1N(C)c1ncnc2[nH]ccc12
GI50 [1]: > 100 µM
TGI [1]: > 100 µM
GI50 [2]: > 100 µM
TGI [2]: > 100 µM
GI50 [3]: > 100 µM
TGI [3]: > 100 µM
GI50 [4]: > 100 µM
TGI [4]: > 100 µM
GI50 [5]: > 100 µM
TGI [5]: > 100 µM
GI50 [6]: > 100 µM
TGI [6]: > 100 µM
GI50 [7]: > 100 µM
TGI [7]: > 100 µM
GI50 [8]: > 100 µM
TGI [8]: > 100 µM
GI50 [9]: > 100 µM
TGI [9]: > 100 µM
GI50 [10]: > 100 µM
TGI [10]: > 100 µM
GI50 [11]: > 100 µM
TGI [11]: > 100 µM
GI50 [12]: > 100 µM
TGI [12]: > 100 µM
GI50 [13]: > 100 µM
TGI [13]: > 100 µM
GI50 [14]: > 100 µM
TGI [14]: > 100 µM
GI50 [15]: > 100 µM
TGI [15]: > 100 µM
GI50 [16]: > 100 µM
TGI [16]: > 100 µM
GI50 [17]: > 100 µM
TGI [17]: > 100 µM
GI50 [18]: > 100 µM
TGI [18]: > 100 µM
GI50 [19]: > 79.9 µM
TGI [19]: > 100 µM
GI50 [20]: > 100 µM
TGI [20]: > 100 µM
GI50 [21]: > 100 µM
TGI [21]: > 100 µM
GI50 [22]: > 100 µM
TGI [22]: > 100 µM
GI50 [23]: > 100 µM
TGI [23]: > 100 µM
GI50 [24]: > 100 µM
TGI [24]: > 100 µM
GI50 [25]: > 100 µM
TGI [25]: > 100 µM
GI50 [26]: 62.5 µM
TGI [26]: > 100 µM
GI50 [27]: > 100 µM
TGI [27]: > 100 µM
GI50 [28]: > 100 µM
TGI [28]: > 100 µM
GI50 [29]: > 100 µM
TGI [29]: > 100 µM
GI50 [30]: > 42.6 µM
TGI [30]: > 85.5 µM
GI50 [31]: > 100 µM
TGI [31]: > 100 µM
GI50 [32]: > 100 µM
TGI [32]: > 100 µM
GI50 [33]: > 100 µM
TGI [33]: > 100 µM
GI50 [34]: > 83.7 µM
TGI [34]: > 100 µM
GI50 [35]: > 100 µM
TGI [35]: > 100 µM
GI50 [36]: > 100 µM
TGI [36]: > 100 µM
GI50 [37]: > 100 µM
TGI [37]: > 100 µM
GI50 [38]: 62 µM
TGI [38]: > 100 µM
GI50 [39]: > 100 µM
TGI [39]: > 100 µM
GI50 [40]: > 100 µM
TGI [40]: > 100 µM
GI50 [41]: > 100 µM
TGI [41]: > 100 µM
GI50 [42]: > 80.4 µM
TGI [42]: > 100 µM
GI50 [43]: 99.8 µM
TGI [43]: > 100 µM
GI50 [44]: > 100 µM
TGI [44]: > 100 µM
GI50 [45]: > 100 µM
TGI [45]: > 100 µM
GI50 [46]: > 100 µM
TGI [46]: > 100 µM
GI50 [47]: > 100 µM
TGI [47]: > 100 µM
GI50 [48]: > 100 µM
TGI [48]: > 100 µM
GI50 [49]: > 58 µM
TGI [49]: > 100 µM
GI50 [50]: > 94 µM
TGI [50]: > 100 µM
GI50 [51]: > 100 µM
TGI [51]: > 100 µM
GI50 [52]: 61.5 µM
TGI [52]: > 100 µM
GI50 [53]: > 100 µM
TGI [53]: > 100 µM
GI50 [54]: > 100 µM
TGI [54]: > 100 µM
GI50 [55]: > 100 µM
TGI [55]: > 100 µM
GI50 [56]: > 71.4 µM
TGI [56]: > 100 µM
GI50 [57]: > 100 µM
TGI [57]: > 100 µM
GI50 [58]: > 100 µM
TGI [58]: > 100 µM
GI50 [59]: > 100 µM
TGI [59]: > 100 µM
